± gives the standard deviation of the averaged measurements.
What was measured:
Assay in all cases: normalised growth rate inhibition (GR value) relative to DMSO control (GR (1 = untreated growth, 0 = cytostasis, <0 = cytotoxic)); higher = less growth inhibition
Conditions in all cases: 72 h
BT20 = test system: BT20
Protocol: (§1)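 Breast cancer cell lines (BT-20, Hs 578T, MCF 10A, MCF7, MDA-MB-231, SK-BR-3) were plated in 384-well plates and treated 24 h later with drugs at six concentrations (0.04-10 µM). Viable cells were counted by Hoechst/dead-cell-stain imaging at 0 and 72 h. Counts were normalised to DMSO controls on the same plate to give the relative cell count and the growth-rate inhibition (GR) value; technical plate triplicates were averaged for each biological replicate.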

HS578T = test system: HS578T
Protocol: as §1

MCF10A = test system: MCF10A
Protocol: as §1

MCF7 = test system: MCF7
Protocol: as §1

MDAMB231 = test system: MDAMB231
Protocol: as §1

SKBR3 = test system: SKBR3
Protocol: as §1

Compound	normalised growth rate inhibition (BT20; 0.04 µM)	normalised growth rate inhibition (BT20; 0.12 µM)	normalised growth rate inhibition (BT20; 0.37 µM)	normalised growth rate inhibition (BT20; 1.11 µM)	normalised growth rate inhibition (BT20; 3.33 µM)	normalised growth rate inhibition (BT20; 10 µM)	normalised growth rate inhibition (HS578T; 0.04 µM)	normalised growth rate inhibition (HS578T; 0.12 µM)	normalised growth rate inhibition (HS578T; 0.37 µM)	normalised growth rate inhibition (HS578T; 1.11 µM)	normalised growth rate inhibition (HS578T; 3.33 µM)	normalised growth rate inhibition (HS578T; 10 µM)	normalised growth rate inhibition (MCF10A; 0.04 µM)	normalised growth rate inhibition (MCF10A; 0.12 µM)	normalised growth rate inhibition (MCF10A; 0.37 µM)	normalised growth rate inhibition (MCF10A; 1.11 µM)	normalised growth rate inhibition (MCF10A; 3.33 µM)	normalised growth rate inhibition (MCF10A; 10 µM)	normalised growth rate inhibition (MCF7; 0.04 µM)	normalised growth rate inhibition (MCF7; 0.12 µM)	normalised growth rate inhibition (MCF7; 0.37 µM)	normalised growth rate inhibition (MCF7; 1.11 µM)	normalised growth rate inhibition (MCF7; 3.33 µM)	normalised growth rate inhibition (MCF7; 10 µM)	normalised growth rate inhibition (MDAMB231; 0.04 µM)	normalised growth rate inhibition (MDAMB231; 0.12 µM)	normalised growth rate inhibition (MDAMB231; 0.37 µM)	normalised growth rate inhibition (MDAMB231; 1.11 µM)	normalised growth rate inhibition (MDAMB231; 3.33 µM)	normalised growth rate inhibition (MDAMB231; 10 µM)	normalised growth rate inhibition (SKBR3; 0.04 µM)	normalised growth rate inhibition (SKBR3; 0.12 µM)	normalised growth rate inhibition (SKBR3; 0.37 µM)	normalised growth rate inhibition (SKBR3; 1.11 µM)	normalised growth rate inhibition (SKBR3; 3.33 µM)	normalised growth rate inhibition (SKBR3; 10 µM)
Cc1ccc(F)c(NC(=O)Nc2ccc(-c3cccc4[nH]nc(N)c34)cc2)c1 [linifanib]	1.09 ± 0.014	1.07 ± 0.039	1.07 ± 0.032	1.08 ± 0.026	1.03 ± 0.011	0.544 ± 0.37	0.995 ± 0.011	0.979 ± 0.011	0.971 ± 0.025	0.969 ± 0.015	0.9497 ± 0.0069	0.701 ± 0.13	1.039 ± 0.0077	1.032 ± 0.0048	1.02 ± 0.012	1.02 ± 0.014	0.994 ± 0.029	0.716 ± 0.24	1.07 ± 0.12	0.996 ± 0.14	1.01 ± 0.12	0.939 ± 0.079	0.874 ± 0.061	0.0601 ± 0.092	1.08 ± 0.014	1.09 ± 0.03	1.08 ± 0.045	1.07 ± 0.053	1.06 ± 0.045	0.192 ± 0.29	1.11 ± 0.046	1.08 ± 0.025	1.11 ± 0.043	1.1 ± 0.078	1.09 ± 0.078	0.232 ± 0.072
C[C@]1(O)C[C@@H](c2nc(-c3ccc4ccc(-c5ccccc5)nc4c3)c3c(N)nccn32)C1 [linsitinib]	0.841 ± 0.032	0.9 ± 0.032	0.949 ± 0.07	0.924 ± 0.054	0.896 ± 0.05	0.797 ± 0.051	0.975 ± 0.034	0.979 ± 0.024	0.93 ± 0.019	0.972 ± 0.048	0.963 ± 0.021	0.831 ± 0.072	0.956 ± 0.055	0.911 ± 0.081	0.824 ± 0.16	0.783 ± 0.18	0.731 ± 0.2	0.626 ± 0.26	0.721 ± 0.014	0.749 ± 0.12	0.555 ± 0.19	0.449 ± 0.14	0.383 ± 0.091	0.271 ± 0.089	0.791 ± 0.048	0.843 ± 0.067	0.861 ± 0.085	0.862 ± 0.068	0.838 ± 0.081	0.697 ± 0.099	0.657 ± 0.19	0.765 ± 0.11	0.806 ± 0.067	0.739 ± 0.072	0.678 ± 0.064	0.538 ± 0.085
O=C1c2c(O)ccc(O)c2C(=O)c2c(NCCNCCO)ccc(NCCNCCO)c21 [mitoxantrone]	0.252 ± 0.12	0.0494 ± 0.084	-0.0983 ± 0.12	-0.205 ± 0.14	-0.243 ± 0.12	-0.461 ± 0.18	0.0811 ± 0.1	-0.0173 ± 0.041	-0.0612 ± 0.043	-0.207 ± 0.087	-0.394 ± 0.11	-0.511 ± 0.17	0.228 ± 0.057	0.0237 ± 0.034	-0.00408 ± 0.025	-0.0492 ± 0.02	-0.186 ± 0.1	-0.142 ± 0.092	0.0337 ± 0.042	0.0173 ± 0.037	0.0313 ± 0.056	-0.141 ± 0.11	-0.348 ± 0.039	-0.59 ± 0.15	-0.0551 ± 0.058	-0.0634 ± 0.075	-0.137 ± 0.1	-0.222 ± 0.15	-0.327 ± 0.24	-0.48 ± 0.21	-0.0581 ± 0.17	-0.0745 ± 0.18	-0.0948 ± 0.2	-0.164 ± 0.17	-0.353 ± 0.13	-0.707 ± 0.16

— the supplement of paper PMC5662764
